According to patent US20200197480A1, “COMBINATION COMPRISING A PARTICULAR POLYMYXIN” (HELPERBY THERAPEUTICS LIMITED, priority 2017, published 2020):

Assays:
[1] = tested on: NDM-1 Escherichia coli (BAA2469); assay: chequerboard analysis, log phase culture, 24 hours incubation, FICI calculated; type: cell-based; set-up: key: FICI; ≤0.5 synergy, 0.5–4.0 no interaction, ≥4.0 antagonism
Procedure: (§1) Log phase bacterial culture was incubated with HT0160010 and CMS in combination using the chequerboard method known in the art. The overnight culture was diluted with nutrient broth (Oxoid) to 10^7 CFU/ml and 280 μl of the culture was added to each well to make a final concentration of 300 μl. Incubation of the compounds with the bacterial suspension was carried out for 24 hours. The HT0160010 concentration ranged from 128 to 0 μg/ml and the CMS concentration ranged from 16 to 0 μg/ml.
(§2) The effects of the combination were examined by calculating the fractional inhibitory concentration index (FICI) of each combination, as follows: (MIC of drug A, tested in combination)/(MIC of drug A, tested alone)+(MIC of drug B, tested in combination)/(MIC of drug B, tested alone). The interaction of the combination was defined as showing synergy if the FICI was ≤0.5, no interaction if the FICI was ≥0.5 but ≤4.0 and antagonism if the FICI was ≥4.0.
• Bacterial strain used: BAA2469 strain of NDM-1 E. coli from ATCC®. • Growth of bacteria: Log phase growth of the bacteria was carried out according to methods known in the art.
Compounds and preparation were the same as Example 1. The effects of the combination were also examined by calculating the FICI in the same manner as Example 1.
as §1, with “with HT0160009” for “with HT0160010”, “from 256” for “from 128”
Compounds and preparation were the same as Example 3. The effects of the combination were also examined by calculating the FICI in the same manner as Example 3.

[2] = tested on: NDM-1 Klebsiella pneumoniae subsp. pneumoniae (BAA2472); assay: as above; type: cell-based
Procedure: • Bacterial strain used: BAA2472 strain of NDM-1 Klebsiella pneumoniae subsp. pneumoniae from ATCC®. • Growth of bacteria: Log phase growth of the bacteria was carried out according to methods known in the art. • Compounds and preparation: • (i) HT0160010 was obtained from a commercial source and dissolved in DMSO to make a stock concentration of 10 mg/ml. • (ii) Colistimethate sodium (CMS) was obtained from a commercial source (e.g. Sigma Aldrich) at a concentration of 10 mg/ml.
as §1, §2
• Bacterial strain used: BAA2472 strain of NDM-1 Klebsiella pneumoniae subsp. pneumoniae from ATCC®. • Growth of bacteria: Log phase growth of the bacteria was carried out according to methods known in the art.
• (i) HT0160009 was obtained from a commercial source and dissolved in DMSO to make a stock concentration of 10 mg/ml. • (ii) Colistimethate sodium (CMS) was obtained from a commercial source (e.g. Sigma Aldrich) at a concentration of 10 mg/ml.
as §1, with “with HT0160009” for “with HT0160010”, “from 256” for “from 128”
The effects of the combination were examined by calculating the FICI in the same manner as Example 1.

[3] = CMS 0.015625 μg/ml, HT0160010 0

Work on O=C(c1cc(C(F)(F)F)nc2c(C(F)(F)F)cccc12)C1CCCCN1 (stereo not shown) [HT0160009] yielded a chequerboard results ([1]; HT0160009 4 μg/ml, CMS 0) of 0.61, a chequerboard results ([1]; HT0160009 8 μg/ml, CMS 0) of 0.54 and a chequerboard results ([1]; HT0160009 16 μg/ml, CMS 0) of 0.58. The chequerboard results ([1]; HT0160009 32 μg/ml, CMS 0) was 0.32, the chequerboard results ([1]; HT0160009 64 μg/ml, CMS 0) was 0.22 and the chequerboard results ([1]; HT0160009 128 μg/ml, CMS 0) was 0.21. It also gave a chequerboard results ([1]; HT0160009 256 μg/ml, CMS 0) of 0.05, a chequerboard results ([2]; HT0160009 4 μg/ml, CMS 0) of 0.50 and a chequerboard results ([2]; HT0160009 8 μg/ml, CMS 0) of 0.50. The chequerboard results ([2]; HT0160009 16 μg/ml, CMS 0) was 0.49, the chequerboard results ([2]; HT0160009 32 μg/ml, CMS 0) was 0.25 and the chequerboard results ([2]; HT0160009 64 μg/ml, CMS 0) was 0.17. It also gave a chequerboard results ([2]; HT0160009 128 μg/ml, CMS 0) of 0.14 and a chequerboard results ([2]; HT0160009 256 μg/ml, CMS 0) of 0.05.
With OC(c1ccccn1)c1cc(C(F)(F)F)nc2c(C(F)(F)F)cccc12 (stereo not shown) [HT0160010, (2,8-bis-trifluoromethyl-quinolin-4-yl)-pyridin-2-yl-methanol] the chequerboard results ([1]; HT0160010 4 μg/ml, CMS 0) was 0.62, the chequerboard results ([1]; HT0160010 8 μg/ml, CMS 0) was 0.58 and the chequerboard results ([1]; HT0160010 16 μg/ml, CMS 0) was 0.61. It also gave a chequerboard results ([1]; HT0160010 32 μg/ml, CMS 0) of 0.62, a chequerboard results ([1]; HT0160010 64 μg/ml, CMS 0) of 0.64 and a chequerboard results ([1]; HT0160010 128 μg/ml, CMS 0) of 0.61. It also gave a chequerboard results ([2]; HT0160010 4 μg/ml, CMS 0) of 0.54, a chequerboard results ([2]; HT0160010 8 μg/ml, CMS 0) of 0.57 and a chequerboard results ([2]; HT0160010 16 μg/ml, CMS 0) of 0.56. The chequerboard results ([2]; HT0160010 32 μg/ml, CMS 0) was 0.56, the chequerboard results ([2]; HT0160010 64 μg/ml, CMS 0) was 0.56 and the chequerboard results ([2]; HT0160010 128 μg/ml, CMS 0) was 0.57.
Colistimethate sodium [CMS] was tested, and the chequerboard results [1, 3] was 0.59, the chequerboard results ([1]; CMS 0.016 μg/ml, HT0160009 0) was 0.62 and the chequerboard results ([1]; CMS 0.031 μg/ml, HT0160009 0) was 0.64. For the same compound, the chequerboard results ([1]; CMS 0.03125 μg/ml, HT0160010 0) was 0.68, the chequerboard results ([1]; CMS 0.0625 μg/ml, HT0160010 0) was 0.61 and the chequerboard results ([1]; CMS 0.063 μg/ml, HT0160009 0) was 0.66. The chequerboard results ([1]; CMS 0.125 μg/ml, HT0160009 0) was 0.63, the chequerboard results ([1]; CMS 0.125 μg/ml, HT0160010 0) was 0.59 and the chequerboard results ([1]; CMS 0.25 μg/ml, HT0160009 0) was 0.62. For the same compound, the chequerboard results ([1]; CMS 0.25 μg/ml, HT0160010 0) was 0.61, the chequerboard results ([1]; CMS 0.5 μg/ml, HT0160009 0) was 0.62 and the chequerboard results ([1]; CMS 0.5 μg/ml, HT0160010 0) was 0.59. The chequerboard results ([1]; CMS 1 μg/ml, HT0160009 0) was 0.56, the chequerboard results ([1]; CMS 1 μg/ml, HT0160010 0) was 0.55 and the chequerboard results ([1]; CMS 2 μg/ml, HT0160009 0) was 0.55. It also gave a chequerboard results ([1]; CMS 2 μg/ml, HT0160010 0) of 0.54, a chequerboard results ([1]; CMS 4 μg/ml, HT0160009 0) of 0.05 and a chequerboard results ([1]; CMS 4 μg/ml, HT0160010 0) of 0.18. The chequerboard results ([1]; CMS 8 μg/ml, HT0160009 0) was 0.05, the chequerboard results ([1]; CMS 8 μg/ml, HT0160010 0) was 0.05 and the chequerboard results ([1]; CMS 16 μg/ml, HT0160009 0) was 0.05. It also gave a chequerboard results ([1]; CMS 16 μg/ml, HT0160010 0) of 0.05, a chequerboard results [2, 3] of 0.54 and a chequerboard results ([2]; CMS 0.016 μg/ml, HT0160009 0) of 0.52. It also gave a chequerboard results ([2]; CMS 0.031 μg/ml, HT0160009 0) of 0.52, a chequerboard results ([2]; CMS 0.03125 μg/ml, HT0160010 0) of 0.53 and a chequerboard results ([2]; CMS 0.0625 μg/ml, HT0160010 0) of 0.54. The chequerboard results ([2]; CMS 0.063 μg/ml, HT0160009 0) was 0.53, the chequerboard results ([2]; CMS 0.125 μg/ml, HT0160009 0) was 0.53 and the chequerboard results ([2]; CMS 0.125 μg/ml, HT0160010 0) was 0.52. The chequerboard results ([2]; CMS 0.25 μg/ml, HT0160009 0) was 0.53, the chequerboard results ([2]; CMS 0.25 μg/ml, HT0160010 0) was 0.51 and the chequerboard results ([2]; CMS 0.5 μg/ml, HT0160009 0) was 0.53. For the same compound, the chequerboard results ([2]; CMS 0.5 μg/ml, HT0160010 0) was 0.52, the chequerboard results ([2]; CMS 1 μg/ml, HT0160009 0) was 0.50 and the chequerboard results ([2]; CMS 1 μg/ml, HT0160010 0) was 0.41. The chequerboard results ([2]; CMS 2 μg/ml, HT0160009 0) was 0.04, the chequerboard results ([2]; CMS 2 μg/ml, HT0160010 0) was 0.05 and the chequerboard results ([2]; CMS 4 μg/ml, HT0160009 0) was 0.04. The chequerboard results ([2]; CMS 4 μg/ml, HT0160010 0) was 0.04, the chequerboard results ([2]; CMS 8 μg/ml, HT0160009 0) was 0.04 and the chequerboard results ([2]; CMS 8 μg/ml, HT0160010 0) was 0.05. The chequerboard results ([2]; CMS 16 μg/ml, HT0160009 0) was 0.04 and the chequerboard results ([2]; CMS 16 μg/ml, HT0160010 0) was 0.05.
